We go through 20 compounds from US11209437B2, “Fluorescent probe and preparation method and use thereof” (Fluorescence Diagnosis (shanghai) Biotech Company Ltd., priority 2016, dated 2021).

Data set [1] in a line: Viscosity responsiveness: fluorescence emission spectra of probes in glycerol and methanol. To be noted: for Emission wavelength: excited at maximum excitation wavelength of each probe; for Fluorescence ratio in glycerol to methanol: probe 1×10^−5 M. Format: physicochemical. The protocol: Probes 1 to 98, 101, 103, 105, 107, 109, 111, 114, 117, and 120, and the reference probes 99, 100, 102, 104, 106, 108, 110, 112, 113, 115, 116, 118, 119, 121, BG-CCVJ and BG-Gly-CCVJ were dissolved in dimethyl sulfoxide, respectively, to prepare mother liquors having a concentration of 1×10^−2 M, to each of which glycerol and methanol were added and uniformly mixed, to prepare solutions finally having a concentration of 1×10^−5 M. Depending on the probes, fluorescence emission spectra of the probes were detected successively with the maximum excitation wavelength of each probe under the same conditions, and the results were shown in Table 1.
That is, these probes are sensitive to viscosity changes and have viscosity responsiveness.

Data set [2] in a line: Fluorescence of free probe prior to binding to a protein tag. The class given is physicochemical. Here is the method:
(§1) Probes were mixed with corresponding protein tags to obtain mixed samples, in which the final probe concentration was 5 μM, and the final protein tag concentration was 10 μM. The mixed samples were incubated 37° C. for 1 hr, fluorescence spectrophotometer was used to detect the change in fluorescence intensity, and the results are shown in Table 1.
(§2) From the quantum yield of probe bound to protein tag, after reacting with the protein tags, the probes of the Examples could be detected to have significant signal enhancement in corresponding excitation transmission channels, the fluorescence activation multiple reached several hundreds to a thousand or more, and the brightness was high, which illustrates that after the probes of the Examples are bound to the protein tags, fluorescence of the probes can be activated, and the probes have good fluorescent molecular switching properties. In contrast, though the fluorescence of the reference probes could also be activated, the quantum yield of activated fluorescence was very low, and the brightness was very poor. In particular, in view of comparison results between probe 98 and reference probe 99, probe 101 and reference probe 102, probe 103 and reference probe 104, probe 105 and reference probe 106, probe 107 and reference probe 108, probe 109 and reference probe 110, probe 111 and reference probe 112, probe 114 and reference probe 115, probe 117 and reference probe 118, probe 120 and reference probe 121 in Table 1, for the same fluorescent dye, when the ligand is connected to the electron donor part of the fluorescent dye, the fluorescence activation brightness of the probe is much higher than the reference probe in which ligand is connected to the electron acceptor part of the fluorescent dye.

Another data set addresses T1, SNAP protein tags (Homo sapiens, UniProt P16455, A127T/A154D/C150Q/C62A/E30R/G131K/G132T/G153L/K125A/K32I/L33F/M134L/N157G/Q115S/Q116H/R128A/R135S/S151G/S152D/S159E).
T1 sequence (P16455 1-182 E30R/K32I/L33F/C62A/Q115S/Q116H/K125A/A127T/R128A/G131K/G132T/M134L/R135S/C150Q/S151G/S152D/G153L/A154D/N157G/S159E): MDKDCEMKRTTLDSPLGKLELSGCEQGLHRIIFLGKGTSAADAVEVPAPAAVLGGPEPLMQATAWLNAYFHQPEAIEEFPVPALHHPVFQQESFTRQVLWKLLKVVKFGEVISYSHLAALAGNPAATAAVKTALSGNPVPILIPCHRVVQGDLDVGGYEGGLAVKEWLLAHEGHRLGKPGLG
Put plainly: Fluorescence activation of probe after incubation with corresponding protein tag (SNAP). Format: biochemical. The settings on record: probe 5 μM, protein tag 10 μM, 37° C., 1 hr. The protocol: as §1, §2

Regarding `CC(C)(C)OC(=O)/C(C#N)=C/c1cc2ccc(N(CCOC(=O)NCCCS(=O)(=O)O)CCOC(=O)NCc3ccc(COc4nc(N)nc5[nH]cnc45)cc3)cc2s1` [probe 39], in data set [1], the Emission wavelength came out at 570 nm and the “Fluorescence ratio in glycerol to methanol” value (shortened to “Fluorescence ratio”) was found to be 892. In addition, in data set [2], the “Quantum yield of free probe” value is on record as 0.0016. Moreover, on SNAP protein tags, the Fluorescence activation multiple came out at 335 and the “Quantum yield of probe bound to protein tag” value (“Quantum yield of probe bound” below) came out at 0.55.
For the compound `CN(CCOC(=O)NCc1ccc(COc2nc(N)nc3[nH]cnc23)cc1)c1ccc2cc(/C=C(\C#N)C(=O)OC(C)(C)C)sc2c1` [probe 40], in data set [1], the Emission wavelength was determined as 570 nm and the “Fluorescence ratio” value is reported as 759. The “Quantum yield of free probe” value in data set [2] is 0.001. Moreover, at SNAP protein tags, the Fluorescence activation multiple was 421 and the “Quantum yield of probe bound” value came to 0.41.
In the same order, the values of `CC1=N/C(=C/c2cc3ccc(N(C)CCOC(=O)NCc4ccc(COc5nc(N)nc6[nH]cnc56)cc4)cc3s2)C(=O)N1C` [probe 41] are 575 nm, 101, 0.0015, 212 and 0.31.
In the same order, the values of `CN1C(=O)/C(=C\c2cc3ccc(N(C)CCOC(=O)NCc4ccc(COc5nc(N)nc6[nH]cnc56)cc4)cc3s2)N=C1c1ccccc1` [probe 42] are 600 nm, 178, 0.0013, 298 and 0.38.
In the same order, the values of `CN(CCOC(=O)NCc1ccc(COc2nc(N)nc3[nH]cnc23)cc1)c1ccc2nc(/C=C(\C#N)C(=O)OC(C)(C)C)oc2c1` [probe 43] are 602 nm, 1028, <0.001, 982 and 0.37.
`CN(CCOC(=O)NCc1ccc(COc2cc(Cl)nc(N)n2)cc1)c1ccc2nc(/C=C(\C#N)C(=O)OC(C)(C)C)oc2c1` [probe 44]: in data set [1], the Emission wavelength was 603 nm and the “Fluorescence ratio” value came to 1459. The “Quantum yield of free probe” value in data set [2] was <0.001. Also, at SNAP protein tags, the Fluorescence activation multiple is recorded as 1586 and the “Quantum yield of probe bound” value was 0.37.
Turning to `CN(CCOC(=O)NCc1ccc(COc2nc(N)nc3[nH]cnc23)cc1)c1ccc2nc(/C=C(\C#N)c3nc4ccccc4o3)oc2c1` [probe 46], in data set [1], the Emission wavelength was determined as 620 nm and the “Fluorescence ratio” value is 682. Besides, the “Quantum yield of free probe” value in data set [2] is <0.001. Besides, at SNAP protein tags, the Fluorescence activation multiple is 563 and the “Quantum yield of probe bound” value turned out to be 0.21.
Regarding `CN(CCOC(=O)NCc1ccc(COc2nc(N)nc3[nH]cnc23)cc1)c1ccc2nc(/C=C(\C#N)c3nc4ccccc4s3)oc2c1` [probe 47], in data set [1], the Emission wavelength amounted to 627 nm and the “Fluorescence ratio” value was 235. For the same compound, the “Quantum yield of free probe” value in data set [2] is reported as <0.001. Also, at SNAP protein tags, the Fluorescence activation multiple worked out at 358 and the “Quantum yield of probe bound” value is recorded as 0.26.
For `CN(CCOC(=O)NCc1ccc(COc2nc(N)nc3[nH]cnc23)cc1)c1ccc2nc(/C=C(\C#N)C(=O)O)oc2c1` [probe 49], in that order: 601 nm, 210, <0.001, 541 and 0.11.
In the same order, the values of `CN1C(=O)/C(=C\c2nc3ccc(N(C)CCOC(=O)NCc4ccc(COc5nc(N)nc6[nH]cnc56)cc4)cc3o2)N=C1c1ccccc1` [probe 50] are 612 nm, 358, <0.001, 416 and 0.29.
For the compound `CN(CCOC(=O)NCc1ccc(COc2nc(N)nc3[nH]cnc23)cc1)c1ccc2nc(/C=C(\C#N)C(=O)OC(C)(C)C)sc2c1` [probe 51], in data set [1], the Emission wavelength is listed as 625 nm and the “Fluorescence ratio” value is listed as 359. In data set [2], the “Quantum yield of free probe” value is recorded as <0.001. Besides, at SNAP protein tags, the Fluorescence activation multiple worked out at 392 and the “Quantum yield of probe bound” value is 0.25.
For the compound `CN(CCOC(=O)NCc1ccc(COc2cc(Cl)nc(N)n2)cc1)c1ccc2nc(/C=C(\C#N)C(=O)OC(C)(C)C)sc2c1` [probe 52], in data set [1], the Emission wavelength came to 625 nm and the “Fluorescence ratio” value is on record as 270. Besides, the “Quantum yield of free probe” value in data set [2] is listed as <0.001. Also, at SNAP protein tags, the Fluorescence activation multiple was 435 and the “Quantum yield of probe bound” value is 0.25.
As for `CN(CCOC(=O)NCc1ccc(COc2nc(N)nc3[nH]cnc23)cc1)c1ccc2nc(/C=C(\C#N)c3nc4ccccc4o3)sc2c1` [probe 54], in data set [1], the Emission wavelength was found to be 650 nm and the “Fluorescence ratio” value was found to be 391. Also, the “Quantum yield of free probe” value in data set [2] is listed as <0.001. On SNAP protein tags, the Fluorescence activation multiple came to 498 and the “Quantum yield of probe bound” value came out at 0.17.
Regarding `CN(CCOC(=O)NCc1ccc(COc2nc(N)nc3[nH]cnc23)cc1)c1ccc2nc(/C=C(\C#N)c3nc4ccccc4s3)sc2c1` [probe 55], in data set [1], the Emission wavelength is listed as 651 nm and the “Fluorescence ratio” value is 211. In addition, the “Quantum yield of free probe” value in data set [2] is given as <0.001. At SNAP protein tags, the Fluorescence activation multiple is 382 and the “Quantum yield of probe bound” value is 0.25.
Turning to `CN(CCOC(=O)NCc1ccc(COc2nc(N)nc3[nH]cnc23)cc1)c1ccc(C#C/C=C(\C#N)c2nc3ccccc3o2)cc1` [probe 58], in data set [1], the Emission wavelength amounted to 590 nm and the “Fluorescence ratio” value worked out at 419. Besides, the “Quantum yield of free probe” value in data set [2] is recorded as <0.001. In addition, on SNAP protein tags, the Fluorescence activation multiple turned out to be 519 and the “Quantum yield of probe bound” value came to 0.27.
For `CN(CCOC(=O)NCc1ccc(COc2nc(N)nc3[nH]cnc23)cc1)c1ccc(C#C/C=C(\C#N)c2nc3ccccc3s2)cc1` [probe 59], in that order: 600 nm, 370, <0.001, 498 and 0.39.
Turning to `CN(CCOC(=O)NCc1ccc(COc2nc(N)nc3[nH]cnc23)cc1)c1cc2sc3cc(/C=C(\C#N)c4nc5ccccc5o4)sc3c2s1` [probe 61], in data set [1], the Emission wavelength stood at 620 nm and the “Fluorescence ratio” value is reported as 817. Besides, in data set [2], the “Quantum yield of free probe” value was found to be 0.0012. On SNAP protein tags, the Fluorescence activation multiple worked out at 668 and the “Quantum yield of probe bound” value is on record as 0.77.
For `CN(CCOC(=O)NCc1ccc(COc2nc(N)nc3[nH]cnc23)cc1)c1cc2sc3cc(/C=C(\C#N)c4nc5ccccc5s4)sc3c2s1` [probe 62], in that order: 640 nm, 711, <0.001, 592 and 0.32.
In the same order, the values of `CN(CCOC(=O)NCc1ccc(COc2nc(N)nc3[nH]cnc23)cc1)c1ccc2c(c1)sc1cc(C=C(C#N)C#N)sc12` [probe 64] are 620 nm, 632, <0.001, 519 and 0.48.
In the same order, the values of `CN(CCOC(=O)NCc1ccc(COc2nccc(N)n2)cc1)c1ccc2c(c1)sc1cc(/C=C(/C#N)c3nc4ccccc4o3)sc12` [probe 65] are 650 nm, 391, <0.001, 798 and 0.66.
